In the NIST ThermoML archive (doi:10.1016/j.jct.2013.01.009):
Several values for one entry are separate records, joined by “and”; a condition that tells them apart may be missing. Equal values may be shown once.

Experiments:
[1] = for vapor or sublimation pressure: Closed cell (Static) method
[2] = molar heat capacity at constant pressure; conditions: 101.33 kPa
[3] = molar enthalpy of vaporization or sublimation; conditions: 298.15 K; Crystal; Static calorimetry
[4] = Molar enthalpy of transition or fusion; conditions: Crystal; DSC

C=C1CC[C@H]2C[C@@H]1C2(C)C [(1S,5S)-6,6-dimethyl-2-methylenebicyclo[3.1.1]heptane]
[1], Liquid
Conditions	vapor or sublimation pressure
248.13 K	0.00844 kPa and 0.00845 kPa
253.14 K	0.01345 kPa and 0.01346 kPa
258.15 K	0.021 kPa and 0.02101 kPa
263.15 K	0.03214 kPa and 0.03213 kPa
268.15 K	0.04828 kPa and 0.04829 kPa
273.65 K	0.07411 kPa and 0.07418 kPa
278.15 K	0.1037 kPa and 0.1038 kPa
283.15 K	0.1485 kPa
288.15 K	0.2093 kPa and 0.2094 kPa and 0.2095 kPa
293.15 K	0.291 kPa and 0.2911 kPa
298.15 K	0.4 kPa
303.15 K	0.5419 kPa and 0.542 kPa
308.15 K	0.7254 kPa and 0.7255 kPa and 0.7256 kPa

[2], Liquid, Large sample (1 g) DSC
Conditions	molar heat capacity at constant pressure [J/K/mol]
273.4 K	230.06
278.5 K	232.64
283.6 K	235.22
288.7 K	237.96
293.8 K	240.62
298.9 K	243.36
304 K	245.94
309.1 K	248.19
314.2 K	251.01
319.4 K	254.17
324.5 K	256.75
329.6 K	260.08
334.7 K	262.9
339.8 K	266.4
344.9 K	269.47
350 K	272.05
355.1 K	275.21

CC1=C[C@H](O)[C@H]2C[C@@H]1C2(C)C [(-)-cis-verbenol]
Conditions	Molar enthalpy of transition or fusion [kcal/mol]	molar enthalpy [kcal/mol]
[3]	–	19.1
[4]	4.18	–

[1]
Conditions	Normal melting temperature, Crystal [°C]	vapor or sublimation pressure, 273.15 K	vapor or sublimation pressure, 278.15 K	vapor or sublimation pressure, 283.15 K [kPa]	vapor or sublimation pressure, 288.15 K	vapor or sublimation pressure, 293.15 K	vapor or sublimation pressure, 298.15 K	vapor or sublimation pressure, 303.15 K [kPa]	vapor or sublimation pressure, 308.15 K	vapor or sublimation pressure, 313.15 K
Crystal	–	0.00025 kPa and 0.00026 kPa	0.00049 kPa and 0.0005 kPa	0.00092	0.00169 kPa and 0.00168 kPa	0.003 kPa and 0.00301 kPa	0.00523 kPa and 0.00528 kPa and 0.00529 kPa	0.00906	0.01518 kPa and 0.01523 kPa and 0.01524 kPa	0.02515 kPa and 0.02516 kPa and 0.02517 kPa
DTA	70.5	–	–	–	–	–	–	–	–	–

[2]
Conditions	molar heat capacity at constant pressure [J/K/mol]
273.4 K, Crystal, Large sample (1 g) DSC	217.51
278.5 K, Crystal, Large sample (1 g) DSC	222.58
283.6 K, Crystal, Large sample (1 g) DSC	228.98
288.7 K, Crystal, Large sample (1 g) DSC	235.38
293.8 K, Crystal, Large sample (1 g) DSC	242.28
298.15 K, Crystal, Drop calorimetry	233.55
298.9 K, Crystal, Large sample (1 g) DSC	250.18
304 K, Crystal, Large sample (1 g) DSC	259
309.1 K, Crystal, Large sample (1 g) DSC	269.14
344.9 K, Liquid, Large sample (1 g) DSC	372.99
350 K, Liquid, Large sample (1 g) DSC	377.14
355.1 K, Liquid, Large sample (1 g) DSC	381.47
